The values below come from patent US9006269B2, “Azetidine derivatives” (Vernalis (R&D) Ltd., priority 2008, dated 2015).

Series [1] deals with rat FAAH protein (30-579) (Rattus norvegicus (Rat), UniProt P97612). Kind of series: Rat FAAH inhibition assay (AAMCA fluorescence). The format is biochemical. As to conditions: 3-hour pre-incubation with compound, 120 nM FAAH; read-out: FAAH Rat IC50 (nM) 180 minutes. The text has this: Rat FAAH Inhibition Assay
Active rat FAAH protein (30-579) was isolated as described in the literature. The coding sequence of amino acids 30-579 of rat FAAH were cloned into the expression vector pET28a to provide an N-terminal His-tag. Following expression, the His-tagged FAAH′ (30-579) was isolated using a method based on Patricelli et al., 1998; Biochemistry vol 37, p 15177 with a combination of chelating sepharose, heparin sepharose and size exclusion chromatography.
FAAH activity was determined by measuring the liberation of the highly fluorescent 7-amino, 4-methyl Coumarin (AMC) generated during hydrolysis of the substrate Arachidonoyl 7-Amino, 4-methyl Coumarin Amide (AAMCA) by FAAH. Inhibition of FAAH activity was determined as a percentage reduction of the fluorescence determined in the absence of compound.
The assay was carried out in black-walled, clear bottom, 384-well plates. 27.5 μl of FAAH protein (in FAAH assay buffer: 50 mM Hepes, 0.01% Triton X-100, 1 mM EDTA, 0.5 mg/ml BSA (fatty-acid-free), pH 8.2) was pre-incubated, at 120 nM, with increasing concentrations of compounds (2.5 μl in 100% DMSO) for 0, 1 or 3 hours at room temperature. 2.5 μl of DMSO was added for ‘total’ controls (100% FAAH activity) and 2.5 μl of URB-597, a known inhibitor of FAAH activity, (at a final, saturating, concentration of 10 μM) was used for ‘non-specific’ controls (0% FAAH activity). 20 μl of 7.5 μM AAMCA substrate (in FAAH assay buffer) was then added to all wells and incubated at room temperature for a further 1.5 hours. Fluorescence was determined at an excitation wavelength of 355 nm and an emission wavelength of 460 nm using a Flexstation plate reader (Molecular Devices, UK). Inhibition of FAAH activity, by the compounds, was determined as the percentage reduction in relative fluorescence units (RFU) compared to the ‘total’ controls (in the absence of compound) minus the ‘non-specific’ controls. IC50 values were determined, from 10-point dose response curves, in XL-Fit using a 4-Parameter Logistic Model (Sigmoidal Dose-Response Model).
The following Table 1 provides the 3-hour incubation results of testing the compounds of Examples 1-4 herein in the above rat FAAH inhibition assay.

A short description of series [2]: Plasma concentrations after oral administration in laboratory rats. The format is in vivo, rat.
The next series concerns the target FAAH (Homo sapiens (Human), UniProt O00519). Put plainly: Intrinsic FAAH inhibitory potency (summary statement). Format: biochemical. The settings on record: qualitative statement.

Structures are written as SMILES.

The term IC50 denotes the concentration at which inhibition is half-maximal.

Sequence of rat FAAH protein (30-579) (P97612 30-579): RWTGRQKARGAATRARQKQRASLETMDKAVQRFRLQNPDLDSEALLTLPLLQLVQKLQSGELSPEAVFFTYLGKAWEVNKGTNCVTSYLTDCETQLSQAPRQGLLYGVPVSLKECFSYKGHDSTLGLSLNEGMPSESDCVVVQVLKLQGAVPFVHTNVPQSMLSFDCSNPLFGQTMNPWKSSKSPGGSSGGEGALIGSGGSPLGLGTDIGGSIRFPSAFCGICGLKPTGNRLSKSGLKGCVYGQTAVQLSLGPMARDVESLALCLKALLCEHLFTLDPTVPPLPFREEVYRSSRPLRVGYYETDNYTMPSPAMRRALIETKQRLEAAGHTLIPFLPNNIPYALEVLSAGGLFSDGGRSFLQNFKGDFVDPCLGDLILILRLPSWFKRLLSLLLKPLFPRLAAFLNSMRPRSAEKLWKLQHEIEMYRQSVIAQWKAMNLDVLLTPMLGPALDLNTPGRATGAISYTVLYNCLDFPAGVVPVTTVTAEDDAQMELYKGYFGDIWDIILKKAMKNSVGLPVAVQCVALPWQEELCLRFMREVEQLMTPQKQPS
Sequence of FAAH (O00519 whole entry): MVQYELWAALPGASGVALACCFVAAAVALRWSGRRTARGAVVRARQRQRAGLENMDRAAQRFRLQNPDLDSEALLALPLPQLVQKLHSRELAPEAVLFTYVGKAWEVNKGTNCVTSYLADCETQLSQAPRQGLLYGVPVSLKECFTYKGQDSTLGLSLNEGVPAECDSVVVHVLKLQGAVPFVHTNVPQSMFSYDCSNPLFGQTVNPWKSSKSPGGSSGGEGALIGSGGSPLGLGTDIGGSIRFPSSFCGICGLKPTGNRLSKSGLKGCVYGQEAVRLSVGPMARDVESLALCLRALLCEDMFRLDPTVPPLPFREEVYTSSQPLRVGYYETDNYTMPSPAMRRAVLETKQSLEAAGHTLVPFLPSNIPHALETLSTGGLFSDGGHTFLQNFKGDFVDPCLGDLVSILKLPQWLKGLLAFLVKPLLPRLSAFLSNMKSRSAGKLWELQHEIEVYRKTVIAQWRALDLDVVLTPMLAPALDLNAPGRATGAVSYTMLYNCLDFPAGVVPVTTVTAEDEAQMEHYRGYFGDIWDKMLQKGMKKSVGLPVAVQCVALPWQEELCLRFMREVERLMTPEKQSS

For the molecule `O=C(Nc1cccnc1)N1CC(Oc2ccc(-c3ccccc3)cc2)C1` [Example 4, 3-(Biphenyl-4-yloxy)-azetidine-1-carboxylic acid pyridin-3-ylamide], in series [1], the IC50 worked out at 67 nM. In series [2], the “plasma concentrations after oral administration” value is “high and prolonged”. At FAAH, the intrinsic-FAAH inhibitory potency result is “good”.
